Each structure is given as a SMILES string.

In general, EC50 refers to the midpoint of the concentration-response curve. Lower therefore signals an effect from little substance.

The test system of this experiment is KMS11 (human myeloma cell line). As to the kind of experiment: Cell Proliferation Assay (CellTiter-Glo, 3 days). Type of experiment: cell-based. As to conditions: KMS-11, 72 h, KMS11-luc cells. How it is done: KMS11 (human myeloma cell line), were cultured in IMDM supplemented with 10% FBS, sodium pyruvate and antibiotics. Cells were plated in the same medium at a density of 2000 cells per well into 96 well tissue culture plates, with outside wells vacant, on the day of assay.
Test compounds supplied in DMSO were diluted into DMSO at 500 times the desired final concentrations before dilution into culture media to 2 times final concentrations. Equal volumes of 2× compounds were added to the cells in 96 well plates and incubated at 37° C. for 3 days.
After 3 days plates were equilibrated to room temperature and equal volume of CellTiter-Glow Reagent (Promega) was added to the culture wells. The plates were agitated briefly and luminescent signal was measured with luminometer.
Using the procedures of Cell Proliferation Assay, the EC50 concentrations of compounds of the examples were determined in KMS11 cells as shown in Table 4.
For orientation: In ATP-based viability assays light output follows the ATP content of the culture.
`C[C@@H]1C[C@H](N)C[C@H](c2ccncc2NC(=O)c2ccc(F)c(-c3c(F)cc([C@H](C)O)cc3F)n2)C1` [Example 73, N-(4-((1R,3S,5S)-3-amino-5-methylcyclohexyl)pyridin-3-yl)-6-(2,6-difluoro-4-((S)-1-hydroxyethyl)phenyl)-5-fluoropicolinamide] came in with an EC50 of 21 nM.

As for `C[C@@H]1C[C@H](N)C[C@H](c2ccncc2NC(=O)c2ccc(F)c(-c3c(F)cc([C@@H](C)O)cc3F)n2)C1` [Example 74, N-(4-((1R,3S,5S)-3-amino-5-methylcyclohexyl)pyridin-3-yl)-6-(2,6-difluoro-4-((R)-1-hydroxyethyl)phenyl)-5-fluoropicolinamide], the EC50 was 15 nM.

Compound `C[C@@H]1C[C@H](N)C[C@H](c2ccncc2NC(=O)c2ccc(F)c(-c3c(F)cc(C4(O)CCOCC4)cc3F)n2)C1` [Example 121, N-(4-((1R,3S,5S)-3-amino-5-methylcyclohexyl)pyridin-3-yl)-6-(2,6-difluoro-4-(4-hydroxytetrahydro-2H-pyran-4-yl)phenyl)-5-fluoropicolinamide] returned an EC50 of 27 nM.

In turn, `C[C@H]1C[C@@H](c2ccncc2NC(=O)c2ccc(F)c(-c3c(F)cc(C4(O)CCOCC4)cc3F)n2)C[C@@H](N)[C@@H]1O` [Example 122, N-(4-((1R,3R,4R,5S)-3-amino-4-hydroxy-5-methylcyclohexyl)pyridin-3-yl)-6-(2,6-difluoro-4-(4-hydroxytetrahydro-2H-pyran-4-yl)phenyl)-5-fluoropicolinamide] registered an EC50 of 83 nM.

`C[C@H]1C[C@@H](c2ccncc2NC(=O)c2ccc(F)c(-c3c(F)cc(C4(F)CCOCC4)cc3F)n2)C[C@@H](N)[C@@H]1O` [Example 127, N-(4-((1R,3R,4R,5S)-3-amino-4-hydroxy-5-methylcyclohexyl)pyridin-3-yl)-6-(2,6-difluoro-4-(4-fluorotetrahydro-2H-pyran-4-yl)phenyl)-5-fluoropicolinamide]: the EC50 was 59 nM.

With `C[C@H]1C[C@@H](c2ccncc2NC(=O)c2ccc(F)c(-c3c(F)cc(C4(F)CCOCC4)cc3F)n2)C[C@@H](N)[C@H]1O` [Example 129, N-(4-((1R,3R,4S,5S)-3-amino-4-hydroxy-5-methylcyclohexyl)pyridin-3-yl)-6-(2,6-difluoro-4-(4-fluorotetrahydro-2H-pyran-4-yl)phenyl)-5-fluoropicolinamide], the EC50 was determined as 78 nM.

In the case of `N[C@H]1CCC[C@@H](c2ccncc2NC(=O)c2ccc(F)c(-c3c(F)cc(OC4CCOCC4)cc3F)n2)C1` [Example 150, N-(4-((1R,3S)-3-aminocyclohexyl)pyridin-3-yl)-6-(2,6-difluoro-4-(tetrahydro-2H-pyran-4-yloxy)phenyl)-5-fluoropicolinamide], the EC50 turned out to be 324 nM.

In the case of `COCCOc1cc(F)c(-c2nc(C(=O)Nc3cnccc3[C@@H]3CCC[C@H](N)C3)ccc2F)c(F)c1` [Example 151, N-(4-((1R,3S)-3-aminocyclohexyl)pyridin-3-yl)-6-(2,6-difluoro-4-(2-methoxyethoxy)phenyl)-5-fluoropicolinamide], the midpoint of the response, the EC50, lay at 340 nM.

`CCOCc1cc(F)c(-c2nc(C(=O)Nc3cnccc3[C@@H]3CCC[C@H](N)C3)ccc2F)c(F)c1` [Example 152, N-(4-((1R,3S)-3-aminocyclohexyl)pyridin-3-yl)-6-(4-(ethoxymethyl)-2,6-difluorophenyl)-5-fluoropicolinamide] yielded an EC50 of 211 nM.

Compound `N[C@H]1CCC[C@@H](c2ccncc2NC(=O)c2ccc(F)c(-c3c(F)cc(C4(F)CCOCC4)cc3F)n2)C1` [Example 153, N-(4-((1R,3S)-3-aminocyclohexyl)pyridin-3-yl)-6-(2,6-difluoro-4-(4-fluorotetrahydro-2H-pyran-4-yl)phenyl)-5-fluoropicolinamide] came in with an EC50 of 366 nM.

As to `CC(C)OCc1cc(F)c(-c2nc(C(=O)Nc3cnccc3[C@@H]3CCC[C@H](N)C3)ccc2F)c(F)c1` [Example 155, N-(4-((1R,3S)-3-aminocyclohexyl)pyridin-3-yl)-6-(2,6-difluoro-4-(isopropoxymethyl)phenyl)-5-fluoropicolinamide], a half-maximal effect (EC50) was put at 264 nM.

`N[C@H]1CCC[C@@H](c2ccncc2NC(=O)c2ccc(F)c(-c3c(F)cc(C4CCOCC4)cc3F)n2)C1` [Example 156, N-(4-((1R,3S)-3-aminocyclohexyl)pyridin-3-yl)-6-(2,6-difluoro-4-(tetrahydro-2H-pyran-4-yl)phenyl)-5-fluoropicolinamide] showed an EC50 of 436 nM.

Compound `CCC(=O)c1cc(F)c(-c2nc(C(=O)Nc3cnccc3[C@H]3C[C@@H](N)[C@H](O)[C@@H](C)C3)ccc2F)c(F)c1` [Example 157, N-(4-((1R,3R,4R,5S)-3-amino-4-hydroxy-5-methylcyclohexyl)pyridin-3-yl)-6-(2,6-difluoro-4-propionylphenyl)-5-fluoropicolinamide] displayed an EC50 of 68 nM.

Consider `C[C@H]1C[C@@H](c2ccncc2NC(=O)c2ccc(F)c(-c3c(F)cc(C4(O)CC4)cc3F)n2)C[C@@H](N)[C@@H]1O` [Example 158, N-(4-((1R,3R,4R,5S)-3-amino-4-hydroxy-5-methylcyclohexyl)pyridin-3-yl)-6-(2,6-difluoro-4-(1-hydroxycyclopropyl)phenyl)-5-fluoropicolinamide], for which a half-maximal effect (EC50) was put at 64 nM.

For the compound `N[C@H]1CCC[C@@H](c2ccncc2NC(=O)c2ccc(F)c(-c3c(F)cc(C4(O)CCC4)cc3F)n2)C1` [Example 159, N-(4-((1R,3S)-3-aminocyclohexyl)pyridin-3-yl)-6-(2,6-difluoro-4-(1-hydroxycyclobutyl)phenyl)-5-fluoropicolinamide], the midpoint of the response, the EC50, lay at 97 nM.

`C[C@H]1C[C@@H](c2ccncc2NC(=O)c2ccc(F)c(-c3c(F)cc(C4(O)CCCC4)cc3F)n2)C[C@@H](N)[C@@H]1O` [Example 161, N-(4-((1R,3R,4R,5S)-3-amino-4-hydroxy-5-methylcyclohexyl)pyridin-3-yl)-6-(2,6-difluoro-4-(1-hydroxycyclopentyl)phenyl)-5-fluoropicolinamide] had an EC50 of 34 nM.

In turn, `N[C@H]1CCC[C@@H](c2ccncc2NC(=O)c2ccc(F)c(-c3c(F)cc(C4(O)CCCC4)cc3F)n2)C1` [Example 162, N-(4-((1R,3S)-3-aminocyclohexyl)pyridin-3-yl)-6-(2,6-difluoro-4-(1-hydroxycyclopentyl)phenyl)-5-fluoropicolinamide] yielded an EC50 of 122 nM.

Compound `N[C@H]1CCC[C@@H](c2ccncc2NC(=O)c2ccc(F)c(-c3c(F)cc(N4CCOCC4)cc3F)n2)C1` [Example 166, N-(4-((1R,3S)-3-aminocyclohexyl)pyridin-3-yl)-6-(2,6-difluoro-4-morpholinophenyl)-5-fluoropicolinamide] returned an EC50 of 325 nM.

Turning to `CC(C)(C#N)c1cc(F)c(-c2nc(C(=O)Nc3cnccc3[C@@H]3CCC[C@H](N)C3)ccc2F)c(F)c1` [Example 167, N-(4-((1R,3S)-3-aminocyclohexyl)pyridin-3-yl)-6-(4-(2-cyanopropan-2-yl)-2,6-difluorophenyl)-5-fluoropicolinamide], the half-maximal effective concentration (EC50) was determined as 409 nM.

Compound `C[C@H]1C[C@@H](c2ccncc2NC(=O)c2ccc(F)c(-c3c(F)cc(C4(C#N)CCOCC4)cc3F)n2)C[C@@H](N)[C@@H]1O` [Example 171, N-(4-((1R,3R,4R,5S)-3-amino-4-hydroxy-5-methylcyclohexyl)pyridin-3-yl)-6-(4-(4-cyanotetrahydro-2H-pyran-4-yl)-2,6-difluorophenyl)-5-fluoropicolinamide] returned an EC50 of 77 nM.

(Values after patent US20120225062A1 (priority 2011, published 2012).)
